ChEMBL document CHEMBL6127065, “Design and Synthesis of c-Met and HDAC Dual Inhibitors for the Treatment of Breast Cancer” (ACS Med Chem Lett, 2024)
Calls of active or inactive are those of the source. The rule behind the calls is not given here.

Assays:
MDA-MB-231 [1] = assay: Induction of apoptosis in human MDA-MB-231 cells assessed as late apoptotic cells at 2.5 uM incubated for 48 hrs by AnnexinV-FITC/PI staining based flow cytometry (reference value: 3.77 to 3.84%); assay type: functional
[2] = biological target: T1, Hepatocyte growth factor receptor (Homo sapiens, UniProt P08581); assay: Inhibition of c-Met (unknown origin) using Poly(Glu:Tyr)(4:1) and ATP as substrate incubated for 45 mins by Kinase-Glo Max reagent based luminescence analysis
[3] = biological target: T1, Hepatocyte growth factor receptor; assay: Inhibition of c-Met in human MDA-MB-231 cells assessed as inhibition of ERK phosphorylation incubated for 48 hrs by western blot analysis; assay type: cell-based; settings: dose 1-25 µM
MDA-MB-231 [4] = assay: Induction of apoptosis in human MDA-MB-231 cells assessed as early apoptotic cells at 5 uM incubated for 48 hrs by AnnexinV-FITC/PI staining based flow cytometry (reference value: 1.6 to 2.41%); assay type: functional
MDA-MB-231 [5] = assay: Induction of apoptosis in human MDA-MB-231 cells assessed as upregulation of cleaved caspase 3 level at 1 to 25 uM incubated for 48 hrs by western blot analysis; assay type: functional, cell-based; settings: dose 1-25 µM
MDA-MB-231 [6] = assay: Induction of cell cycle arrest in human MDA-MB-231 cells assessed as accumulation of cells at S phase at 2.5 uM incubated for 48 hrs by PI staining based flow cytometry (reference value: 12.56 to 14.76%); assay type: functional
MDA-MB-231 [7] = assay: Antiproliferative activity against human MDA-MB-231 cells assessed as reduction in cell growth incubated for 72 hrs by MTT assay; settings: MDA-MB-231, 72 h
MDA-MB-231 [8] = assay: Induction of cell cycle arrest in human MDA-MB-231 cells assessed as accumulation of cells at G0/G1 phase at 10 uM incubated for 48 hrs by PI staining based flow cytometry (reference value: 55.36 to 55.82%); assay type: functional
MDA-MB-231 [9] = assay: Induction of cell cycle arrest in human MDA-MB-231 cells assessed as accumulation of cells at G2/M phase at 10 uM incubated for 48 hrs by PI staining based flow cytometry (reference value: 29.42 to 32.08%); assay type: functional
MDA-MB-231 [10] = assay: Induction of cell cycle arrest in human MDA-MB-231 cells assessed as accumulation of cells at G2/M phase at 1 uM incubated for 48 hrs by PI staining based flow cytometry (reference value: 29.42 to 32.08%); assay type: functional
MDA-MB-231 [11] = assay: Induction of cell cycle arrest in human MDA-MB-231 cells assessed as accumulation of cells at S phase at 1 uM incubated for 48 hrs by PI staining based flow cytometry (reference value: 12.56 to 14.76%); assay type: functional
MDA-MB-231 [12] = assay: Induction of apoptosis in human MDA-MB-231 cells assessed as necrotic cells at 5 uM incubated for 48 hrs by AnnexinV-FITC/PI staining based flow cytometry (reference value: 1.79 to 2.53%); assay type: functional
MDA-MB-231 [13] = assay: Induction of apoptosis in human MDA-MB-231 cells assessed as late apoptotic cells at 10 uM incubated for 48 hrs by AnnexinV-FITC/PI staining based flow cytometry (reference value: 3.77 to 3.84%); assay type: functional
MDA-MB-231 [14] = assay: Induction of cell cycle arrest in human MDA-MB-231 cells assessed as accumulation of cells at G2/M phase at 2.5 uM incubated for 48 hrs by PI staining based flow cytometry (reference value: 29.42 to 32.08%); assay type: functional
MDA-MB-231 [15] = assay: Induction of apoptosis in human MDA-MB-231 cells assessed as viable cells at 5 uM incubated for 48 hrs by AnnexinV-FITC/PI staining based flow cytometry (reference value: 91.22 to 92.84%); assay type: functional; settings: read-out: Activity
MDA-MB-231 [16] = assay: Induction of apoptosis in human MDA-MB-231 cells assessed as late apoptotic cells at 5 uM incubated for 48 hrs by AnnexinV-FITC/PI staining based flow cytometry (reference value: 3.77 to 3.84%); assay type: functional
MDA-MB-231 [17] = assay: Induction of cell cycle arrest in human MDA-MB-231 cells assessed as accumulation of cells at G0/G1 phase at 1 uM incubated for 48 hrs by PI staining based flow cytometry (reference value: 55.36 to 55.82%); assay type: functional
[18] = biological target: T1, Hepatocyte growth factor receptor; assay: Inhibition of c-Met in human MDA-MB-231 cells assessed as inhibition of Akt phosphorylation at Ser473 residue incubated for 48 hrs by western blot analysis; assay type: cell-based; settings: dose 1-25 µM
MDA-MB-231 [19] = assay: Induction of cell cycle arrest in human MDA-MB-231 cells assessed as accumulation of cells at G2/M phase at 25 uM incubated for 48 hrs by PI staining based flow cytometry (reference value: 29.42 to 32.08%); assay type: functional
MDA-MB-231 [20] = assay: Induction of apoptosis in human MDA-MB-231 cells assessed as upregulation of cleaved caspase 7 level at 1 to 25 uM incubated for 48 hrs by western blot analysis; assay type: functional, cell-based; settings: dose 1-25 µM
MDA-MB-231 [21] = assay: Induction of apoptosis in human MDA-MB-231 cells assessed as early apoptotic cells at 10 uM incubated for 48 hrs by AnnexinV-FITC/PI staining based flow cytometry (reference value: 1.6 to 2.41%); assay type: functional
MDA-MB-231 [22] = assay: Induction of apoptosis in human MDA-MB-231 cells assessed as upregulation of cleaved PARP level at 1 to 25 uM incubated for 48 hrs by western blot analysis; assay type: functional, cell-based; settings: dose 1-25 µM
MDA-MB-231 [23] = assay: Induction of cell cycle arrest in human MDA-MB-231 cells assessed as accumulation of cells at S phase at 25 uM incubated for 48 hrs by PI staining based flow cytometry (reference value: 12.56 to 14.76%); assay type: functional
MDA-MB-231 [24] = assay: Induction of cell cycle arrest in human MDA-MB-231 cells assessed as accumulation of cells at G0/G1 phase at 25 uM incubated for 48 hrs by PI staining based flow cytometry (reference value: 55.36 to 55.82%); assay type: functional
MDA-MB-453 = assay: Antiproliferative activity against human MDA-MB-453 cells assessed as reduction in cell growth incubated for 72 hrs by MTT assay; settings: MDA-MB-453, 72 h
MDA-MB-231 [25] = assay: Induction of cell cycle arrest in human MDA-MB-231 cells assessed as accumulation of cells at G0/G1 phase at 2.5 uM incubated for 48 hrs by PI staining based flow cytometry (reference value: 55.36 to 55.82%); assay type: functional
MDA-MB-231 [26] = assay: Induction of apoptosis in human MDA-MB-231 cells assessed as late apoptotic cells at 25 uM incubated for 48 hrs by AnnexinV-FITC/PI staining based flow cytometry (reference value: 3.77 to 3.84%); assay type: functional
MDA-MB-231 [27] = assay: Induction of apoptosis in human MDA-MB-231 cells assessed as necrotic cells at 25 uM incubated for 48 hrs by AnnexinV-FITC/PI staining based flow cytometry (reference value: 1.79 to 2.53%); assay type: functional
MDA-MB-231 [28] = assay: Induction of apoptosis in human MDA-MB-231 cells assessed as early apoptotic cells at 25 uM incubated for 48 hrs by AnnexinV-FITC/PI staining based flow cytometry (reference value: 1.6 to 2.41%); assay type: functional
MDA-MB-231 [29] = assay: Induction of apoptosis in human MDA-MB-231 cells assessed as necrotic cells at 10 uM incubated for 48 hrs by AnnexinV-FITC/PI staining based flow cytometry (reference value: 1.79 to 2.53%); assay type: functional

T1 sequence (P08581 whole entry): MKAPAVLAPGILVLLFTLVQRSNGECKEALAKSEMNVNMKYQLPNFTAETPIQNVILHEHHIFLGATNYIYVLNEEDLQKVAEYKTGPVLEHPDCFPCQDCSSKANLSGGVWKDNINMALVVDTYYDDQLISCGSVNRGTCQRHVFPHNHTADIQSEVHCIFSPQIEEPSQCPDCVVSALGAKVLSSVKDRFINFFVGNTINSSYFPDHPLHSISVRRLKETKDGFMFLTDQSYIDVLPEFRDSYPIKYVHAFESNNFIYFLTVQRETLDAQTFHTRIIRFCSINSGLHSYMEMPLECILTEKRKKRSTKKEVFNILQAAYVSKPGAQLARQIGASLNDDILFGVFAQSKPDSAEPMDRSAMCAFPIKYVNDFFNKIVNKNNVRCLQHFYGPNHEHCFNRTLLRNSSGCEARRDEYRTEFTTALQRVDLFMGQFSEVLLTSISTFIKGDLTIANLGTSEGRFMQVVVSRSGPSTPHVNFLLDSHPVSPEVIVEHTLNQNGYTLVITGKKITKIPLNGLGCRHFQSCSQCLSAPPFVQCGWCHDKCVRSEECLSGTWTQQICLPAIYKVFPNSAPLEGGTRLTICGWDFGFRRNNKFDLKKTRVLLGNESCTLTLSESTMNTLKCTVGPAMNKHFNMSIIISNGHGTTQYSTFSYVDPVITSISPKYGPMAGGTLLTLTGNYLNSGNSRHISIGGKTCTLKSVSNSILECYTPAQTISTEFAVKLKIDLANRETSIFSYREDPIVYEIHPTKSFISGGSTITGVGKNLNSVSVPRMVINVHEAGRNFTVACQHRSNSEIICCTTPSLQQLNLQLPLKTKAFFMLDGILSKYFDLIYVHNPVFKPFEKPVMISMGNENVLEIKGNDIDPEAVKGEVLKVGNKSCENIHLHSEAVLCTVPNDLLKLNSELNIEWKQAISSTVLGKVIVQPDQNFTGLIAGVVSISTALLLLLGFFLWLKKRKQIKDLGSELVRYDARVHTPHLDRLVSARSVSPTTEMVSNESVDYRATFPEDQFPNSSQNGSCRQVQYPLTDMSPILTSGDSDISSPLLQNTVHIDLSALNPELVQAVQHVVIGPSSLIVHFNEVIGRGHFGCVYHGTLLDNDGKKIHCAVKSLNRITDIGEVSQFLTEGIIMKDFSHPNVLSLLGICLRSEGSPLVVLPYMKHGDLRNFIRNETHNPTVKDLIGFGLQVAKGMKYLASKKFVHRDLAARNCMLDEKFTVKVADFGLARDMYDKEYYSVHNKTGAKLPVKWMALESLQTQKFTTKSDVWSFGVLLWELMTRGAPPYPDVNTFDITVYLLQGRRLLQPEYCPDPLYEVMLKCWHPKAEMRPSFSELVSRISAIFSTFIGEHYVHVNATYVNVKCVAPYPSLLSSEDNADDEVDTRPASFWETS

For CC(c1ccc2ncccc2c1)n1nnc2ncc(N3CCN(Cc4ccc(/C=C/C(=O)Nc5ccccc5N)cc4)CC3)nc21 (stereo not given), the Activity (MDA-MB-231 [1]) was 6.97%, the IC50 [2] was 0.0289 µM and the inhibition [3] was “Dose-Dependent Effect”. The Activity (MDA-MB-231 [4]) was 3.1%, the Activity (MDA-MB-231 [5]) was “Active” and the Activity (MDA-MB-231 [6]) was 9.53%. For the same compound, the IC50 (MDA-MB-231 [7]) was 3.57 µM, the Activity (MDA-MB-231 [8]) was 75.71% and the Activity (MDA-MB-231 [9]) was 16.08%. It also gave an Activity (MDA-MB-231 [10]) of 27.08%, an Activity (MDA-MB-231 [11]) of 7.57% and an Activity (MDA-MB-231 [12]) of 4.59%. For the same compound, the Activity (MDA-MB-231 [13]) was 10.69%, the Activity (MDA-MB-231 [14]) was 23.33% and the viability at 5 µM (MDA-MB-231 [15]) was 85.5%. For the same compound, the Activity (MDA-MB-231 [16]) was 6.84%, the Activity (MDA-MB-231 [17]) was 65.34% and the inhibition [18] was “Dose-Dependent Effect”. For the same compound, the Activity (MDA-MB-231 [19]) was 10.57%, the Activity (MDA-MB-231 [20]) was “Active” and the Activity (MDA-MB-231 [21]) was 4.56%. For the same compound, the Activity (MDA-MB-231 [22]) was “Active”, the Activity (MDA-MB-231 [23]) was 6.06% and the Activity (MDA-MB-231 [24]) was 83.37%. The IC50 (MDA-MB-453) was 5.47 µM, the Activity (MDA-MB-231 [25]) was 67.14% and the Activity (MDA-MB-231 [26]) was 12.3%. For the same compound, the Activity (MDA-MB-231 [27]) was 1.42%, the Activity (MDA-MB-231 [28]) was 3.51% and the Activity (MDA-MB-231 [29]) was 1.67%.
